Experiments:
Type in all cases: in vivo
sorghum [1] = experiment: Herbicidal activity test against upland field weeds (foliar treatment test); set-up: key to Foliar treatment herbicidal activity, Sorghum: 0 (no control); 100 (complete control); conditions: 50 g ai/ha, scale 0-100
Outline: (§1)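 Visual 0–100 control ratings relative to untreated plants, taken 14 (or 21) days after spraying foliage at 50 or 75 g a.i./ha. Spray solution: 50% acetone with 0.1% Tween-20; plants kept in greenhouse at 30±5 °C, 14 h light/10 h dark.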

crabgrass [2] = experiment: as above; set-up: key to Foliar treatment herbicidal activity, Crabgrass: 0 (no control); 100 (complete control); conditions: 50 g ai/ha, scale 0-100
Outline: as §1

indian jointvetch = experiment: as above; conditions: 50 g ai/ha, scale 0-100
Outline: as §1

velvetleaf = experiment: as above; conditions: Abutilon theophrasti, 50 g ai/ha, scale 0-100, read-out: Foliar treatment herbicidal activity, velvet leaf
Outline: as §1

sorghum [3] = experiment: Herbicidal activity test against upland field weeds (soil treatment test); set-up: key to Soil treatment herbicidal activity, Sorghum: 0 (no control); 100 (complete control); conditions: 50 g ai/ha, scale 0 (no control) to 100 (complete control)
Outline: (§2)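 Weed control scored visually on a 0 (none) to 100 (complete) scale versus untreated pots at 14 or 21 days in greenhouse (30±5 °C, 14 h light). Test compounds, 50 or 75 g a.i./ha in 50% acetone/0.1% Tween-20, hand-sprayed onto soil one day post-sowing.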

barnyard grass = experiment: as above; set-up: key to Soil treatment herbicidal activity, barnyard grass: 0 (no control); 100 (complete control); conditions: 50 g ai/ha, scale 0 (no control) to 100 (complete control)
Outline: as §2

quack grass = experiment: as above; set-up: key to Soil treatment herbicidal activity, quack grass: 0 (no control); 100 (complete control); conditions: 50 g ai/ha, scale 0 (no control) to 100 (complete control)
Outline: as §2

crabgrass [4] = experiment: as above; set-up: key to Soil treatment herbicidal activity, Crabgrass: 0 (no control); 100 (complete control); conditions: 50 g ai/ha, scale 0 (no control) to 100 (complete control)
Outline: as §2

fall panicum = experiment: as above; set-up: key to Soil treatment herbicidal activity, Fall panicum: 0 (no control); 100 (complete control); conditions: 50 g ai/ha, scale 0 (no control) to 100 (complete control)
Outline: as §2

corn = experiment: Phytotoxicity test for field crops (soil treatment test); set-up: key: 0 (no harm); 9 (complete withered)
Outline: (§3)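 Crops sown in sterilized horticultural soil (pH 6.1, organic material 1.0%) with mixed fertilizer (N:P:K=17:21:17); one day after sowing, soil sprayed with compound in 33% acetone/0.1% Tween-20 at 19˜300 g a.i./ha. Greenhouse at 30±5° C, 14/10 h light/dark; injury scored visually 0–9 versus untreated control at 10 and 20 days.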

cotton = experiment: as above; set-up: key: 0 (no harm); 9 (complete withered)
Outline: as §3

rice = experiment: as above; set-up: key: 0 (no harm); 9 (complete withered)
Outline: as §3

soybean = experiment: as above; set-up: key: 0 (no harm); 9 (complete withered)
Outline: as §3

wheat = experiment: as above; set-up: key: 0 (no harm); 9 (complete withered)
Outline: as §3

[5] = 50 g ai/ha, Corn (10 days after treatment)
[6] = 50 g ai/ha, Corn (20 days after treatment)
[7] = 100 g ai/ha, Corn (10 days after treatment)
[8] = 100 g ai/ha, Corn (20 days after treatment)
[9] = 50 g ai/ha, Cotton (10 days after treatment)
[10] = 50 g ai/ha, Cotton (20 days after treatment)
[11] = 100 g ai/ha, Cotton (10 days after treatment)
[12] = 100 g ai/ha, Cotton (20 days after treatment)
[13] = 50 g ai/ha, Rice (10 days after treatment)
[14] = 50 g ai/ha, Rice (20 days after treatment)
[15] = 100 g ai/ha, Rice (10 days after treatment)
[16] = 100 g ai/ha, Rice (20 days after treatment)
[17] = 50 g ai/ha, Wheat (10 days after treatment)
[18] = 50 g ai/ha, Wheat (20 days after treatment)
[19] = 100 g ai/ha, Wheat (10 days after treatment)
[20] = 100 g ai/ha, Wheat (20 days after treatment)

Structure (SMILES): Cn1nnnc1COc1nc(C(F)(F)F)ccc1C(=O)Nc1nnnn1C [Compound No. 1-1, N-(1-methyl-1H-tetrazol-5-yl)-2-((1-methyl-1H-tetrazol-5-yl)methoxy)-6-(trifluoromethyl)nicotinamide]
- plant injury at 50 g/ha (sorghum [1]; Sorghum): 70%
- Foliar treatment herbicidal activity, Crabgrass (crabgrass [2]): 100
- pest or weed control at 50 g/ha (indian jointvetch): 30%
- pest or weed control at 50 g/ha (velvetleaf): 98%
- Soil treatment herbicidal activity, Sorghum (sorghum [3]): 0
- pest or weed control at 50 g/ha (barnyard grass; Echinochloa crus-galli): 95%
- Soil treatment herbicidal activity, quack grass (quack grass): 0
- pest or weed control at 50 g/ha (crabgrass [4]; Digitaria sanguinalis): 98%
- pest or weed control at 50 g/ha (fall panicum; Panicum dichotomiflorum): 98%
- Soil treatment phytotoxicity, Corn (corn; [5]): 0
- Soil treatment phytotoxicity, Corn (corn; [6]): 0
- Soil treatment phytotoxicity, Corn (corn; [7]): 0
- Soil treatment phytotoxicity, Corn (corn; [8]): 0
- Soil treatment phytotoxicity, Cotton (cotton; [9]): 2
- Soil treatment phytotoxicity, Cotton (cotton; [10]): 6
- Soil treatment phytotoxicity, Cotton (cotton; [11]): 2
- Soil treatment phytotoxicity, Cotton (cotton; [12]): 7
- Soil treatment phytotoxicity, Rice (rice; [13]): 1
- Soil treatment phytotoxicity, Rice (rice; [14]): 7
- Soil treatment phytotoxicity, Rice (rice; [15]): 3
- Soil treatment phytotoxicity, Rice (rice; [16]): 9
- Soil treatment phytotoxicity, Soybean (soybean; 50 g ai/ha, Soybean (10 days after treatment)): 3
- Soil treatment phytotoxicity, Soybean (soybean; 50 g ai/ha, Soybean (20 days after treatment)): 5
- Soil treatment phytotoxicity, Soybean (soybean; 100 g ai/ha, Soybean (10 days after treatment)): 3
- Soil treatment phytotoxicity, Soybean (soybean; 100 g ai/ha, Soybean (20 days after treatment)): 7
- Soil treatment phytotoxicity, Wheat (wheat; [17]): 0
- Soil treatment phytotoxicity, Wheat (wheat; [18]): 0
- Soil treatment phytotoxicity, Wheat (wheat; [19]): 0
- Soil treatment phytotoxicity, Wheat (wheat; [20]): 1

Structure (SMILES): Cn1nnc(COc2nc(C(F)(F)F)ccc2C(=O)Nc2nnnn2C)n1 [Compound No. 2-1, N-(1-methyl-1H-tetrazol-5-yl)-2-((2-methyl-2H-tetrazol-5-yl)methoxy)-6-(trifluoromethyl)nicotinamide]
- Foliar treatment herbicidal activity, Sorghum (sorghum [1]): 0
- pest or weed control at 50 g/ha (crabgrass [2]; Digitaria sanguinalis): 95%
- pest or weed control at 50 g/ha (indian jointvetch): 60%
- pest or weed control at 50 g/ha (velvetleaf): 30%
- Soil treatment herbicidal activity, Sorghum (sorghum [3]): 0
- Soil treatment herbicidal activity, barnyard grass (barnyard grass): 0
- Soil treatment herbicidal activity, quack grass (quack grass): 0
- Soil treatment herbicidal activity, Crabgrass (crabgrass [4]): 0
- Soil treatment herbicidal activity, Fall panicum (fall panicum): 0
- Soil treatment phytotoxicity, Corn (corn; [5]): 0
- Soil treatment phytotoxicity, Corn (corn; [6]): 0
- Soil treatment phytotoxicity, Corn (corn; [7]): 0
- Soil treatment phytotoxicity, Corn (corn; [8]): 0
- Soil treatment phytotoxicity, Cotton (cotton; [9]): 1
- Soil treatment phytotoxicity, Cotton (cotton; [10]): 2
- Soil treatment phytotoxicity, Cotton (cotton; [11]): 4
- Soil treatment phytotoxicity, Cotton (cotton; [12]): 7
- Soil treatment phytotoxicity, Rice (rice; [13]): 3
- Soil treatment phytotoxicity, Rice (rice; [14]): 3
- Soil treatment phytotoxicity, Rice (rice; [15]): 5
- Soil treatment phytotoxicity, Rice (rice; [16]): 5
- Soil treatment phytotoxicity, Wheat (wheat; [17]): 0
- Soil treatment phytotoxicity, Wheat (wheat; [18]): 0
- Soil treatment phytotoxicity, Wheat (wheat; [19]): 0
- Soil treatment phytotoxicity, Wheat (wheat; [20]): 0
